Assays:
PC12 cells [1] = test: Addition of rhIL-1β to PC12 cultures in the presence of NGF, insulin or serum; format: cell-based; settings: 1 μg/ml
Experimental: (§1) PC12 cells were grown as previously described (Greene and Tishcler, 1976) on rat-tail collagen-coated dishes in RPMI 1640 medium containing 5% fetal calf serum and 10% heat-inactivated horse serum (complete medium). NGF primed PC12 cells were grown for at least 7 days in RPMI 1640 medium plus 1% horse serum and NGF (100 ng/ml). For cell survival assays involving trophic factor deprivation, cells (either naive or NGF-pretreated) were extensively washed in serum-free RPMI 1640 medium and re-plated on fresh collagen-coated 24-well dishes as previously described (Rukenstein et al., 1991) in RPMI 1640 medium lacking serum or NGF. For SOD1 down-regulation survival assays, cells were re-plated in complete medium with V-ASOD1 (vector linked antisense oligonucleotide to SOD1, 50 nM). Various concentrations of ICE inhibitors were included in the medium as indicated. Numbers of viable cells per culture were determined by quantifying intact nuclei as previously described (Rukenstein et al., 1991). Counts were performed in triplicate and reported as means±SEM.

PC12 cells [2] = test: PC12 cell survival after SOD1 down-regulation by V-ASOD1; format: cell-based, rat
Experimental: as §1

With “IL-1β: recombinant human IL-1β provided by the NCI” the “cell death on addition to PC12 cultures” value (PC12 cells [1]) was “did not produce cell death”, the “effect of exogenous IL-1β on V-ASOD1 induced death” value (PC12 cells [2]; IL-1β 1 μg/ml with V-ASOD1 50 nM) was “potentiates the cell death” and the “effect of exogenous IL-1β on protection by V-ICEinh” value (PC12 cells [2]; IL-1β 1 μg/ml, V-ASOD1 50 nM, V-ICEinh 25 nM) was “abrogates the protection”. For the same substance, the “effect of exogenous IL-1β alone on cell death” value (PC12 cells [2]; IL-1β 1 μg/ml, no V-ASOD1) was “no effect”.
